Test results taken from patent publication US8124637B2, “Anthra [1, 2-d]imidazole-6,11-dione derivatives, preparation method and application thereof” (National Defense Medical Center, priority 2010, dated 2012).
“Also recorded” adds a separate entry of the source. Where two headings read alike, the source gives them in different places.

How the values were obtained:
[1] = test system: hTERT promoter (PhTERT) expression; assay: SEAP assay (PhTERT-SEAP reporter, H1299); assay type: cell-based, human; details: for activity at 1 µM / activity at 10 µM / activity at 100 µM: Homo sapiens, NCI-H1299, PhTERT-SEAP (H1299); for activity at 1 µM: read-out: Relative SEAP activity (%); for activity at 10 µM / activity at 100 µM: read-out: Relative SEAP activity (%) (converted); for Relative SEAP activity (%): PhTERT-SEAP (H1299)
Method: H1299 were grown in RPMI 1640 media supplemented with 10% fetal bovine serum, 100 units/mL penicillin and […] streptomycin in a humidified atmosphere with 5% CO2 at 37° C. Culture media were changed every three days. To establish stable cell lines that the expression of hTERT could be monitored by a reporter system, a about 3.3 kbp DNA fragment ranging from −3338 to +1 bp of the hTERT gene (hTERT promoter, PhTERT) was subcloned upstream to a secreted alkaline phosphatase gene (SEAP) and transfected into H1299 bp electroporation. The stable clones were selected using G418. The stable clones derived from H1299 were cultured using conditions that are similar to their parental cells.
Secreted alkaline phosphatase was used as the reporter system to monitor the transcriptional activity of hTERT. Here, about 10^4 cells each were grown in 96-well plates and incubated at 37° C. for 24 hours and changed with fresh media. Varying amounts of drugs were added and cells were incubated for another 24 hours. Culture media were collected and heated at 65° C. for 10 min to inactivate heat-labile phosphatases. An equal amount of SEAP buffer (2 M diethanolamine, 1 mM MgCl2, and 20 mM L-homoarginine) was added to the media and p-nitrophenyl phosphate was added to a final concentration of 12 mM. Absorptions at 405 nm were taken, and the rate of absorption increase is determined (the increasing rate of absorbance at 405 nm was used to represent the activity of SEAP).

[2] = MTT assay (relative cell survival), H1299; details: human, H1299 non-small cell lung cancer cells (PhTERT-SEAP), Relative MTT viability (%)
Method: (§1) Further, cells were subjected to MTT assay to compare the relative toxicity or effect of each compound on cell proliferation and activity.
(§2) The above-described cells are cultured in a 96-well plate, to which was added with 25 μl MTT solution, and cultured in a 37° C. carbon dioxide incubator for 4 hours. Then, 100 μl Lysis buffer is added and incubated in a 37° C. carbon dioxide incubator overnight. An ELISA reader (Bio-Rad Model 450) is used to read optical density (O.D.) at 550 nm.
(§3) After being subjected to different compound treatments for 72 hours, cells were treated with a fixed amount of MTT solution for 28 hours. Then, DMSO was used to dissolve back formazan, an O. D. value was detected at wavelength in the range of 550/670 nm, and calculated accordingly the cell survival rate (as shown in Table 1).

H1299 cells [3] = assay: MTT assay (relative cell survival), H1299; details: PhTERT-SEAP (H1299), 100 μM
Method: as §1, §2, §3

[4] = biological target: T1, telomerase (total cell lysates of lung cancer cell line H1299) (Homo sapiens, UniProt O14746); assay: Telomere repeat amplification protocol (TRAP) assay; assay type: biochemical; details: gel; for inhibition effect/activity of telomerase (TRAP): preliminary screening at 10 μM
T1 construct: As a source of telomerase, the total cell lysates derived from lung cancer cell line H1299 cells were used; endogenous in cells; host or cells: H1299 lung cancer cells (total cell lysate)
T1 sequence (O14746 whole entry): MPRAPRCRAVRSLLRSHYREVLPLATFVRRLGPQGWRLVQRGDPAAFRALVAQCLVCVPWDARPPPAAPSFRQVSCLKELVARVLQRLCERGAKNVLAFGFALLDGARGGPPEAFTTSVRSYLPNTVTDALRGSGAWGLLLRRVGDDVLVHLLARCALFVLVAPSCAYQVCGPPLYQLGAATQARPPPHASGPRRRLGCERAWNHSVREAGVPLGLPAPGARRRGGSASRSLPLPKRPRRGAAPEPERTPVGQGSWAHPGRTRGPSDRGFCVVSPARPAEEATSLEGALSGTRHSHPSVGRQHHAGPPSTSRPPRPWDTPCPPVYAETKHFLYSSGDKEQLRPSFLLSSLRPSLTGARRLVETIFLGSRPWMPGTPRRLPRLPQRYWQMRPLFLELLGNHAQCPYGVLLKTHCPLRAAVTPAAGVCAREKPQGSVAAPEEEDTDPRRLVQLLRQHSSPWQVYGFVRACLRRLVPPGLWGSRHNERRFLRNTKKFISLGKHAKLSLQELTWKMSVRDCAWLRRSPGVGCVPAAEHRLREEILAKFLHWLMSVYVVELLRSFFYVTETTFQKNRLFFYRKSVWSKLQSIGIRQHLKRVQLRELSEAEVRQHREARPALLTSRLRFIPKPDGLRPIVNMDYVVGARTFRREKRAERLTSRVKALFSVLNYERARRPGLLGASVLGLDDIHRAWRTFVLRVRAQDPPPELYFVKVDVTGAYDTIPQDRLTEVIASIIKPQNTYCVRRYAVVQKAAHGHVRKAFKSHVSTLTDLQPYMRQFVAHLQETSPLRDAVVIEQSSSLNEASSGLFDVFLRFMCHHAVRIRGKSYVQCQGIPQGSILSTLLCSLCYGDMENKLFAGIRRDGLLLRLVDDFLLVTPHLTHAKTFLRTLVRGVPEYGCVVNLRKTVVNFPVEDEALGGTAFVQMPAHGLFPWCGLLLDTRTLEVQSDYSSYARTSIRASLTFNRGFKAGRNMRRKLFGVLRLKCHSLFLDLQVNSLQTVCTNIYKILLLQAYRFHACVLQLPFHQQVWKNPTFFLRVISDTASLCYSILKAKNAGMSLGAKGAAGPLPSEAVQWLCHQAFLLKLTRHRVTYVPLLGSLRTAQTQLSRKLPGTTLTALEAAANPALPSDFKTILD
T1 sequence (O60832 whole entry partner): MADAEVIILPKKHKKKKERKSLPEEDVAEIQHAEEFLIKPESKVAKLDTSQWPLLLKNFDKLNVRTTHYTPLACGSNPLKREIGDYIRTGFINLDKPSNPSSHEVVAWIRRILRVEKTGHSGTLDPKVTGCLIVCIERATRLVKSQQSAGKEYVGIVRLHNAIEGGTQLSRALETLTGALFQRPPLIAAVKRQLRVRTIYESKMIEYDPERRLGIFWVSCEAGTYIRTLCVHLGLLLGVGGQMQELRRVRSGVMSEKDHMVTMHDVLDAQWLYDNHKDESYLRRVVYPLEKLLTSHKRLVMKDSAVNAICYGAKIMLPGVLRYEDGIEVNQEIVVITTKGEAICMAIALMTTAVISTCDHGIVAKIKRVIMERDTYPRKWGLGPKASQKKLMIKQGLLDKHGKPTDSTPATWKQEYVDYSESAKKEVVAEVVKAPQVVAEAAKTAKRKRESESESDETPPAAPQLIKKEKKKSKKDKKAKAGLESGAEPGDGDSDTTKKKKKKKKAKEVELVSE
T1 sequence (Q9NX24 whole entry partner): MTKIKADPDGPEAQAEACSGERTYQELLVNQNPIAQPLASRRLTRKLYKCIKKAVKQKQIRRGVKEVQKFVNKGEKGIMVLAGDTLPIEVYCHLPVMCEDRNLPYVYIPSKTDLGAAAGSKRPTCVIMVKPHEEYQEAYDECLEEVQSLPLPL
T1 sequence (Q9NPE3 whole entry partner): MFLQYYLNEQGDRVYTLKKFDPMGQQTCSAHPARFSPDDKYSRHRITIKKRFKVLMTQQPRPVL
T1 sequence (Q9NY12 whole entry partner): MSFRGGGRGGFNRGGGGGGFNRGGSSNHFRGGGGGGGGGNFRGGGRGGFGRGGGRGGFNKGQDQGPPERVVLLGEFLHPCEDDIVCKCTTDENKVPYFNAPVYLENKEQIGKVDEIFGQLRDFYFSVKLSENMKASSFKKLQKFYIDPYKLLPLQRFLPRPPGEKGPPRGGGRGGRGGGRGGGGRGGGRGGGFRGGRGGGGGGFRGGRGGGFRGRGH
Method: Telomerase activity was detected by a modified version of the general TRAP protocol. Telomerase products were resolved by 10% polyacrylamide gel electrophoresis and visualized by staining with SYBER Green. As a source of telomerase, the total cell lysates derived from lung cancer cell line H1299 cells were used. Protein concentration of the lysates was assayed using Bio-Rad protein assay kit using BSA standards.
In the FIGS. 3A, 3B and FIG. 4, a positive control group (P) used water that had been sterilized three times in the assay; while a negative control group (N) used RNase A (CLONTECH) (5 μL, 0.1 mg/mL) in the assay.
In the positive control group (P), due to the absence of inhibitor, the telomerase could extend the telomere, such that some longer telomere fragments could be observed; while there was not observed in the negative control group (N). In the result of TRAP assay (FIG. 3A to 3B), compounds with a concentration of 10 μM was used as the preliminary screening. In the gel, standard compound A was 1,2-diaminoanthraquinone, D was doxorubicin, and M was mitoxantrone.

in vitro = details: human, Relative MTT viability (%)
Method: as §1, §2, §3

H1299 cells [5] = test system: H1299 cells
Method: as §1, §2, §3

O=C1c2ccccc2C(=O)c2c1ccc1nc(CCCl)[nH]c21 [CL35, 2-(2-chloroethyl)-1H-anthra[1,2-d]imidazole-6,11-dione]
activity at 1 µM ([1]; 1 μM): 94.7 ± 9.12% | activity at 10 µM ([1]; 10 μM): 82.8% | activity at 100 µM [1]: 7.62% | viability at 72 h, 1 µM [2]: 91.1 ± 5.56% | viability at 72 h, 10 µM [2]: 85.6% | viability at 72 h, 100 µM [2]: > 40% | Relative MTT viability (%) (H1299 cells [3]): 40.27 ± 1.32%

CCN1CCN(Cc2nc3ccc4c(c3[nH]2)C(=O)c2ccccc2C4=O)CC1 [CL25, 2-((4-ethylpiperazin-1-yl)methyl)-1H-anthra[1,2-d]imidazole-6,11-dione]
inhibition effect/activity of telomerase (TRAP) [4]: more significant inhibition effect/activity of telomerase | activity at 1 µM ([1]; 1 μM): 91.8 ± 3% | activity at 10 µM ([1]; 10 μM): 13.6% | activity at 100 µM [1]: -4.43% | viability at 72 h, 1 µM [2]: 86.2 ± 5.18% | viability at 72 h, 10 µM [2]: < 50%

O=C1c2ccccc2C(=O)c2c1ccc1nc(CCN3CCN(c4ccccn4)CC3)[nH]c21 [CL38, 2-(2-(4-(pyridin-2-yl)piperazin-1-yl)ethyl)-1H-anthra[1,2-d]imidazole-6,11-dione]
activity at 1 µM ([1]; 1 μM): 87.6 ± 8.63% | activity at 10 µM ([1]; 10 μM): 62.9% | activity at 100 µM [1]: 1.49% | viability at 72 h, 1 µM [2]: 98 ± 7.72% | viability at 72 h, 10 µM [2]: 92.8% | viability at 72 h, 100 µM [2]: > 40% | Relative MTT viability (%) (H1299 cells [3]): 57.03 ± 10.76%

O=C1c2ccccc2C(=O)c2c1ccc1nc(CCN3CCN(c4ccccc4)CC3)[nH]c21 [CL37, 2-(2-(4-phenylpiperazin-1-yl)ethyl)-1H-anthra[1,2-d]imidazole-6,11-dione]
activity at 1 µM ([1]; 1 μM): 104 ± 4.96% | activity at 10 µM ([1]; 10 μM): 92.7% | activity at 100 µM [1]: 36.6% | viability at 72 h, 1 µM (in vitro): 94 ± 0.98% | viability at 72 h, 10 µM (in vitro): 96.5%

COc1cccc2c1C(=O)c1c(O)c3c(c(O)c1C2=O)C[C@@](O)(C(=O)CO)C[C@@H]3O[C@H]1C[C@H](N)[C@H](O)[C@H](C)O1 [doxorubicin, reference compound]
activity at 1 µM ([1]; 1 μM): 33.8 ± 3.22% | activity at 10 µM ([1]; 10 μM): 13.6 ± 3.56% | activity at 100 µM [1]: 5.18 ± 4.01% | Relative MTT viability (%) (H1299 cells [5]; human, 72 h, 10 µM): −9.79 ± 2.78% | Relative MTT viability (%) (H1299 cells [5]; human, 72 h, 100 µM): −11.38 ± 4.34% | viability at 72 h, 1 µM (in vitro): 17.1 ± 5.37%

O=C1c2ccccc2C(=O)c2c1ccc1nc(CNCc3cccc(C(F)(F)F)c3)[nH]c21 [CL13, 2-((3-(trifluoromethyl)benzylamino)methyl)-1H-anthra[1,2-d]imidazole-6,11-dione]
activity at 1 µM ([1]; 1 μM): 87.1 ± 2.04% | activity at 10 µM ([1]; 10 μM): 89.5% | activity at 100 µM [1]: 4.27% | viability at 72 h, 1 µM [2]: 114 ± 3.31% | viability at 72 h, 10 µM [2]: 110% | viability at 72 h, 100 µM [2]: > 40% | Relative MTT viability (%) (H1299 cells [3]): 32.26 ± 2.68%

CC1CCN(Cc2nc3ccc4c(c3[nH]2)C(=O)c2ccccc2C4=O)CC1 [CL17, 2-((4-methylpiperidin-1-yl)methyl)-1H-anthra[1,2-d]imidazole-6,11-dione]
activity at 1 µM ([1]; 1 μM): 102 ± 4.81% | activity at 10 µM ([1]; 10 μM): 97.3% | activity at 100 µM [1]: 25.6% | viability at 72 h, 1 µM [2]: 114 ± 3.31% | viability at 72 h, 10 µM [2]: 110% | viability at 72 h, 100 µM [2]: > 40% | Relative MTT viability (%) (H1299 cells [3]): 32.26 ± 2.68%

Nc1ccc2c(c1N)C(=O)c1ccccc1C2=O [1,2-diaminoanthraquinone, reference compound]
activity at 1 µM ([1]; 1 μM): 98.5 ± 11.7% | activity at 10 µM ([1]; 10 μM): 77.3 ± 11.6% | activity at 100 µM [1]: 18.2 ± 4.45% | viability at 72 h, 1 µM (in vitro): 105 ± 9.37% | viability at 72 h, 10 µM (in vitro): 95.5 ± 3.75% | viability at 72 h, 100 µM (in vitro): 39.3 ± 8.84%

O=C1c2ccccc2C(=O)c2c1ccc1nc(CCl)[nH]c21 [CL01, 2-(chloromethyl)-1H-anthra[1,2-d]imidazole-6,11-dione]
activity at 1 µM ([1]; 1 μM): 69.2 ± 1.89% | activity at 10 µM ([1]; 10 μM): -0.58 ± 1.16% | activity at 100 µM [1]: 2.87 ± 1.42% | Relative MTT viability (%) (H1299 cells [5]; human, 72 h, 100 µM): −5.28 ± 1.13% | viability at 72 h, 1 µM (in vitro): 82.3 ± 6.19% | viability at 72 h, 10 µM (in vitro): < 50%

CN(Cc1nc2ccc3c(c2[nH]1)C(=O)c1ccccc1C3=O)Cc1c2ccccc2cc2ccccc12 [CL11, 2-(((anthracen-10-yl)-N-methylmethanamino)methyl)-1H-anthra[1,2-d]imidazole-6,11-dione]
Relative SEAP activity (%) ([1]; 1 μM): 101.69 ± 5.82% | Relative SEAP activity (%) ([1]; 10 μM): 77.46 ± 6.40% | Relative MTT viability (%) (H1299 cells [5]; 1 µM): 98.03 ± 4.48% | Relative MTT viability (%) (H1299 cells [5]; 10 µM): 83.80 ± 5.64%

O=C1c2ccccc2C(=O)c2c1ccc1nc(CN3CCC(CCCC4CCNCC4)CC3)[nH]c21 [CL20, 2-((4-(3-(piperidin-4-yl)propyl)piperidin-1-yl)methyl)-1H-anthra[1,2-d]imidazole-6,11-dione]
telomerase inhibiting effect (TRAP) ([4]; 1 μM): telomerase inhibiting effect could be observed still | inhibition effect/activity of telomerase (TRAP) [4]: more significant inhibition effect/activity of telomerase; also recorded: highest inhibition effect/activity of telomerase | activity at 1 µM ([1]; 1 μM): 96 ± 5.48% | activity at 10 µM ([1]; 10 μM): 7.52% | activity at 100 µM [1]: 3.08% | viability at 72 h, 1 µM [2]: 97 ± 4.74% | viability at 72 h, 10 µM [2]: < 50%

COc1cccc(N2CCN(Cc3nc4ccc5c(c4[nH]3)C(=O)c3ccccc3C5=O)CC2)c1 [CL32, 2-((4-(3-methoxyphenyl)piperazin-1-yl)methyl)-1H-anthra[1,2-d]imidazole-6,11-dione]
activity at 1 µM ([1]; 1 μM): 105 ± 5.64% | activity at 10 µM ([1]; 10 μM): < 50% | activity at 100 µM [1]: 3.33% | viability at 72 h, 1 µM (in vitro): 81.3 ± 9.72% | viability at 72 h, 10 µM (in vitro): > 50% | viability at 72 h, 100 µM (in vitro): 23.9%

O=C1c2c(O)ccc(O)c2C(=O)c2c(NCCNCCO)ccc(NCCNCCO)c21 [mitoxantrone, reference compound]
activity at 1 µM ([1]; 1 μM): 20.8 ± 1.56% | activity at 10 µM ([1]; 10 μM): 9.92 ± 4.8% | activity at 100 µM [1]: 7.19 ± 1.59% | Relative MTT viability (%) (H1299 cells [5]; human, 72 h, 10 µM): −8.51 ± 1.13% | Relative MTT viability (%) (H1299 cells [5]; human, 72 h, 100 µM): −0.44 ± 1.01% | viability at 72 h, 1 µM (in vitro): 23.7 ± 8.06%
